Assay results taken from patent US6426080B1, “Cosmetic preparation of active substances with high protection factor against free radicals” (Coty, B.V., priority 1998, dated 2002).

Columns and labels:
[1] = standard antioxidants, known parameter; cited from earlier work
[2] = activity against free radicals compared with SOD; type: biochemical
Text: The Quebracho bark extract according to the invention or its hydrolysis product has a very high portion of proantho-cyanidines representing condensed tannins. […] The activity against free radicals was compared with that of SOD and found to be 42% for a 1 percent by weight solution of the extract (SOD 4%), 83% for a 2.5% by weight solution (SOD 15%)and 100% for a 5% by weight solution (SOD 38%). Preferably the extract (a) contains at least 95 percent by weight of proanthocyanidine oligomers and up to 5 percent by weight of gallic acid, in particular at least 99 percent by weight of proanthocyanidine oligomers and up to 1 percent by weight of gallic acid.

Row | Compound | radical protection factor (RPF) [1] | activity against free radicals ([2]; 1 percent by weight solution) | activity against free radicals ([2]; 2.5% by weight solution) | activity against free radicals ([2]; 5% by weight solution)
1 | Cc1c(C)c2c(c(C)c1O)CCC(C)(CCCC(C)CCCC(C)CCCC(C)C)O2 (racemic) [DL-α-tocopherol] | 41200 ×10^14 radicals/mg | – | – | –
2 | CC(=O)Oc1c(C)c(C)c2c(c1C)CCC(C)(CCC[C@H](C)CCC[C@H](C)CCCC(C)C)O2 (stereo partly shown) [a-tocopherol acetate] | about 48 ×10^14 radicals/mg | – | – | –
3 | CC(=O)OC/C=C(C)/C=C/C=C(C)/C=C/C1=C(C)CCCC1(C)C [all-trans retinal acetate] | 196 ×10^14 radicals/mg | – | – | –
4 | CC1=C(/C=C/C(C)=C/C=C/C(C)=C/CO)C(C)(C)CCC1 [all-trans-retinole] | 827 ×10^14 radicals/mg | – | – | –
5 | superoxide dismutase [SOD] | – | 4% | 15% | 38%
